Measurements reported in patent publication US12582722B2, “Bifunctional compounds for degrading BTK via ubiquitin proteosome pathway” (NURIX THERAPEUTICS, INC., priority 2019, dated 2026).

What follows are compounds tested against T1, BTK (Homo sapiens, UniProt Q06187) (assay: Cellular BTK HTRF Assay (BTK degradation in Ramos cells)). Conditions: four hours incubation, 37° C., BTK levels relative to DMSO-treated cells.
T1 construct: endogenous in cells; host or cells: Ramos (ATCC CRL-1596)
Type: cell-based
Experimental: Ramos (CRL-1596) cells were obtained from American Type Culture Collection and were grown in RPMI-1640 media (ATCC, 30-2001) supplemented with 10% heat-inactivated FBS (Corning Premium Fetal Bovine Serum from Fisher, MT35015CV).
Compounds of the present invention were added to 50,000 Ramos cells in round-bottom 96 well plates with a final DMSO concentration of […] and were incubated at 37° C., 5% CO2 for four hours. BTK levels were determined using Cisbio Total-BTK HTRF ([…] Time-Resolved Fluorescence) kit (63ADK064PEG) according to manufacturer's protocol. Briefly, cells were incubated in 1× supplied lysis buffer for 30 minutes. In an opaque white low volume 96 well plate (Cisbio, 66PL96005), cell lysate was combined with two different specific BTK antibodies, one conjugated with Eu^3+-Cryptate FRET donor and one conjugated with d2 FRET acceptor. Assay controls include wells containing cell lysate with only the Eu^3+-Cryptate FRET donor antibody and wells containing both HTRF antibodies and lysis buffer without cells or control lysate provided by Cisbio. HTRF ratio was calculated as (acceptor signal at 665 nm/donor signal at 620 nm)×10^4. Background HTRF levels were determined from the control well containing the donor, but no acceptor, antibody. Background HTRF levels were subtracted from all samples. Readouts were reported as HTRF levels relative to HTRF levels of DMSO-treated cells. Four-parameter non-linear regressions were performed in GraphPad Prism 7.02 to obtain DC50 values. DC50 values are provided in Table 3, wherein A<7.5 nM, 7.5 nM≤B≤50 nM, and 50 nM<C<500 nM.

T1 sequence (Q06187 whole entry): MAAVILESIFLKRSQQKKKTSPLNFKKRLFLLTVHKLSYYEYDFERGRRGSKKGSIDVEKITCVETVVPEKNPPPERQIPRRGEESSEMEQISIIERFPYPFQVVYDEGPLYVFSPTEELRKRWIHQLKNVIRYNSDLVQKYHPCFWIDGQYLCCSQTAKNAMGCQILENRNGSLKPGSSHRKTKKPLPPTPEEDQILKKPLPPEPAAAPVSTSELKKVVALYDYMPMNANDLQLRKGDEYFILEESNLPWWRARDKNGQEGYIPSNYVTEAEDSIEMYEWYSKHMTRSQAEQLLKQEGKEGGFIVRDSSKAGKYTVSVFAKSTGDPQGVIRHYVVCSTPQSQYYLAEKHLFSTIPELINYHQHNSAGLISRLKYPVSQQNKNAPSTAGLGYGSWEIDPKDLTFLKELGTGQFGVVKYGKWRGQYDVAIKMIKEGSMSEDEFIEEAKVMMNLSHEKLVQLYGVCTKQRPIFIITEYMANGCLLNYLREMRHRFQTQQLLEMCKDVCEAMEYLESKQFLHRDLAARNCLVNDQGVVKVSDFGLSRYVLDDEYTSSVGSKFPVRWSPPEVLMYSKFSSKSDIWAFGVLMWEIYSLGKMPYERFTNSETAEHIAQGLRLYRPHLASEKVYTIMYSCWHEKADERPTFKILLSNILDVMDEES

Row | DC50 [nM] | SMILES
1 | 7.5 to 50 | CS(=O)(=O)c1ccc(Nc2nc(N3CCC[C@@H](NC(=O)OCCCCCCCOc4ccc5c(c4)C(=O)N(C4CCC(=O)NC4=O)C5=O)C3)cnc2C(N)=O)cc1 (stereo partly drawn) [Compound 3, 7-((2-(2,6-dioxopiperidin-3-yl)-1,3-dioxoisoindolin-5-yl)oxy)heptyl ((R)-1-(5-carbamoyl-6-((4-(methylsulfonyl)phenyl)amino)pyrazin-2-yl)piperidin-3-yl)carbamate]
2 | 50 to 500 | Cc1cc(Nc2nc(N3CCC[C@@H](NC(=O)OCCC4CCN(c5ccc6c(c5)C(=O)N(C5CCC(=O)NC5=O)C6=O)CC4)C3)cnc2C(N)=O)sn1 (stereo partly drawn) [Compound 7, 2-(1-(2-(2,6-dioxopiperidin-3-yl)-1,3-dioxoisoindolin-5-yl)piperidin-4-yl)ethyl ((R)-1-(5-carbamoyl-6-((3-methylisothiazol-5-yl)amino)pyrazin-2-yl)piperidin-3-yl)carbamate]
3 | < 7.5 | CS(=O)(=O)c1ccc(Nc2nc(N3CCC[C@@H](NC(=O)C4CCN(CC5CCN(c6ccc7c(c6)C(=O)N(C6CCC(=O)NC6=O)C7=O)CC5)C4)C3)cnc2C(N)=O)cc1 (stereo partly drawn) [Compound 14, 5-[(3R)-3-[1-({1-[2-(2,6-dioxopiperidin-3-yl)-1,3-dioxoisoindol-5-yl]piperidin-4-yl}methyl)pyrrolidine-3-amido]piperidin-1-yl]-3-[(4-methanesulfonylphenyl)amino]pyrazine-2-carboxamide]
4 | < 7.5 | Cn1cc(Nc2nc(N3CCC[C@@H](N4CCC5(CCN(CC6CN(c7ccc8c(c7)C(=O)N(C7CCC(=O)NC7=O)C8=O)C6)CC5)C4=O)C3)cnc2C(N)=O)cn1 (stereo partly drawn) [Compound 50, 5-[(3R)-3-[8-({1-[2-(2,6-dioxopiperidin-3-yl)-1,3-dioxoisoindol-5-yl]azetidin-3-yl}methyl)-1-oxo-2,8-diazaspiro[4.5]decan-2-yl]piperidin-1-yl]-3-[(1-methylpyrazol-4-yl)amino]pyrazine-2-carboxamide]
5 | 50 to 500 | Cc1cc(Nc2nc(N3CCC[C@@H](NC(=O)N4CCN(c5ccc6c(c5)C(=O)N(C5CCC(=O)NC5=O)C6=O)CC4)C3)cnc2C(N)=O)sn1 (stereo partly drawn) [Compound 27, 5-[(3R)-3-{4-[2-(2,6-dioxopiperidin-3-yl)-1,3-dioxoisoindol-5-yl]piperazine-1-carbonylamino}piperidin-1-yl]-3-[(3-methyl-1,2-thiazol-5-yl)amino]pyrazine-2-carboxamide]
6 | 7.5 to 50 | Cc1cc(Nc2nc(N3CCC[C@@H](NC(=O)C4CCN(C5CN(c6ccc7c(c6)C(=O)N(C6CCC(=O)NC6=O)C7=O)C5)CC4)C3)cnc2C(N)=O)sn1 (stereo partly drawn) [Compound 38, 5-((3R)-3-(1-(1-(2-(2,6-dioxopiperidin-3-yl)-1,3-dioxoisoindolin-5-yl)azetidin-3-yl)piperidine-4-carboxamido)piperidin-1-yl)-3-((3-methylisothiazol-5-yl)amino)pyrazine-2-carboxamide]
7 | < 7.5 | Cn1cc(Nc2nc(N3CCC[C@@H](N4CC5(CN(C6CCN(c7ccc8c(c7)C(=O)N(C7CCC(=O)NC7=O)C8=O)CC6)C5)OC4=O)C3)cnc2C(N)=O)cn1 (stereo partly drawn) [Compound 44, 5-[(3R)-3-(2-{1-[2-(2,6-dioxopiperidin-3-yl)-1,3-dioxoisoindol-5-yl]piperidin-4-yl}-6-oxo-5-oxa-2,7-diazaspiro[3.4]octan-7-yl)piperidin-1-yl]-3-[(1-methylpyrazol-4-yl)amino]pyrazine-2-carboxamide]
8 | < 7.5 | Cc1cc(Nc2nc(N3CCC[C@@H](NC(=O)C4CCN(C5CN(Cc6ccc7c(c6)C(=O)N(C6CCC(=O)NC6=O)C7=O)C5)CC4)C3)cnc2C(N)=O)sn1 (stereo partly drawn) [Compound 37, 5-[(3R)-3-[1-(1-{[2-(2,6-dioxopiperidin-3-yl)-1,3-dioxoisoindol-5-yl]methyl}azetidin-3-yl)piperidine-4-amido]piperidin-1-yl]-3-[(3-methyl-1,2-thiazol-5-yl)amino]pyrazine-2-carboxamide]
9 | < 7.5 | Cn1cc(Nc2nc(N3CCC[C@@H](N4CC5(CN(CC6CN(c7ccc8c(c7)C(=O)N(C7CCC(=O)NC7=O)C8=O)C6)C5)OC4=O)C3)cnc2C(N)=O)cn1 (stereo partly drawn) [Compound 42, 5-((3R)-3-(2-((1-(2-(2,6-dioxopiperidin-3-yl)-1,3-dioxoisoindolin-5-yl)azetidin-3-yl)methyl)-6-oxo-5-oxa-2,7-diazaspiro[3.4]octan-7-yl)piperidin-1-yl)-3-((1-methyl-1H-pyrazol-4-yl)amino)pyrazine-2-carboxamide]
10 | 50 to 500 | Cc1cc(Nc2nc(N3CCCC(NC(=O)CCOCCCc4cccc5c4CN(C4CCC(=O)NC4=O)C5=O)C3)cnc2C(N)=O)sn1 (stereo in doubt) [Compound 45, 5-[(3R)-3-(3-{3-[2-(2,6-dioxopiperidin-3-yl)-1-oxo-3H-isoindol-4-yl]propoxy}propanamido)piperidin-1-yl]-3-[(3-methyl-1,2-thiazol-5-yl)amino]pyrazine-2-carboxamide]
11 | < 7.5 | Cc1cc(Nc2nc(N3CCC[C@@H](NC(=O)C4CCN(CC5CCN(c6ccc7c(c6)C(=O)N(C6CCC(=O)NC6=O)C7=O)CC5)CC4)C3)cnc2C(N)=O)sn1 (stereo partly drawn) [Compound 22, 5-[(3R)-3-[1-({1-[2-(2,6-dioxopiperidin-3-yl)-1,3-dioxoisoindol-5-yl]piperidin-4-yl}methyl)piperidine-4-amido]piperidin-1-yl]-3-[(3-methyl-1,2-thiazol-5-yl)amino]pyrazine-2-carboxamide]
12 | 7.5 to 50 | CS(=O)(=O)c1ccc(Nc2nc(N3CCC[C@@H](NC(=O)C4CC5CCC(C4)N5CC4CCN(c5ccc6c(c5)C(=O)N(C5CCC(=O)NC5=O)C6=O)CC4)C3)cnc2C(N)=O)cc1 (stereo partly drawn) [Compound 34, (1R,3s,5S)—N—((R)-1-(5-carbamoyl-6-((4-(methylsulfonyl)phenyl)amino)pyrazin-2-yl)piperidin-3-yl)-8-((1-(2-(2,6-dioxopiperidin-3-yl)-1,3-dioxoisoindolin-5-yl)piperidin-4-yl)methyl)-8-azabicyclo[3.2.1]octane-3-carboxamide]
13 | < 7.5 | CS(=O)(=O)c1ccc(Nc2nc(N3CCC[C@@H](NC(=O)N4CCC5(CC4)CN(Cc4ccc6c(c4)C(=O)N(C4CCC(=O)NC4=O)C6=O)C5)C3)cnc2C(N)=O)cc1 (stereo partly drawn) [Compound 29, N-[(3R)-1-{5-carbamoyl-6-[(4-methanesulfonylphenyl)amino]pyrazin-2-yl}piperidin-3-yl]-2-{[2-(2,6-dioxopiperidin-3-yl)-1,3-dioxoisoindol-5-yl]methyl}-2,7-diazaspiro[3.5]nonane-7-carboxamide]
14 | 7.5 to 50 | CS(=O)(=O)c1ccc(Nc2nc(N3CCC[C@@H](NC(=O)OCCC4CCN(c5ccc6c(c5)C(=O)N(C5CCC(=O)NC5=O)C6=O)CC4)C3)cnc2C(N)=O)cc1 (stereo partly drawn) [Compound 6, 2-(1-(2-(2,6-dioxopiperidin-3-yl)-1,3-dioxoisoindolin-5-yl)piperidin-4-yl)ethyl ((R)-1-(5-carbamoyl-6-((4-(methylsulfonyl)phenyl)amino)pyrazin-2-yl)piperidin-3-yl)carbamate]
15 | < 7.5 | Cc1cc(Nc2nc(N3CCC[C@@H](NC(=O)N4CCN(CC5CN(c6ccc7c(c6)C(=O)N(C6CCC(=O)NC6=O)C7=O)C5)CC4)C3)cnc2C(N)=O)sn1 (stereo partly drawn) [Compound 18, 5-[(3R)-3-[4-({1-[2-(2,6-dioxopiperidin-3-yl)-1,3-dioxoisoindol-5-yl]azetidin-3-yl}methyl)piperazine-1-carbonylamino]piperidin-1-yl]-3-[(3-methyl-1,2-thiazol-5-yl)amino]pyrazine-2-carboxamide]
16 | 7.5 to 50 | CS(=O)(=O)c1ccc(Nc2nc(N3CCC[C@@H](NC(=O)C4CC5(C4)CN(Cc4ccc6c(c4)C(=O)N(C4CCC(=O)NC4=O)C6=O)C5)C3)cnc2C(N)=O)cc1 (stereo partly drawn) [Compound 32, N—((R)-1-(5-carbamoyl-6-((4-(methylsulfonyl)phenyl)amino)pyrazin-2-yl)piperidin-3-yl)-2-((2-(2,6-dioxopiperidin-3-yl)-1,3-dioxoisoindolin-5-yl)methyl)-2-azaspiro[3.3]heptane-6-carboxamide]
17 | < 7.5 | Cn1cc(Nc2nc(N3CCC[C@@H](N4CC5(CN(CC6CCN(c7ccc8c(c7)C(=O)N(C7CCC(=O)NC7=O)C8=O)CC6)C5)OC4=O)C3)cnc2C(N)=O)cn1 (stereo partly drawn) [Compound 43, 5-[(3R)-3-[2-({1-[2-(2,6-dioxopiperidin-3-yl)-1,3-dioxoisoindol-5-yl]piperidin-4-yl}methyl)-6-oxo-5-oxa-2,7-diazaspiro[3.4]octan-7-yl]piperidin-1-yl]-3-[(1-methylpyrazol-4-yl)amino]pyrazine-2-carboxamide]
18 | 7.5 to 50 | CS(=O)(=O)c1ccc(Nc2nc(N3CCC[C@@H](NC(=O)[C@H]4CCN(CC5CCN(c6ccc7c(c6)C(=O)N(C6CCC(=O)NC6=O)C7=O)CC5)C4)C3)cnc2C(N)=O)cc1 (stereo partly drawn) [Compound 46, 5-[(3R)-3-[1-({1-[2-(2,6-dioxopiperidin-3-yl)-1,3-dioxoisoindol-5-yl]piperidin-4-yl}methyl)pyrrolidine-3-amido]piperidin-1-yl]-3-[(4-methanesulfonylphenyl)amino]pyrazine-2-carboxamide]
